Data reported in patent publication US20230348419A1, “BIAMINOQUINOLINES AND NANOFORMULATIONS FOR CANCER TREATMENT” (The Regents of the University of California, priority 2019, published 2023).
Read-outs that look alike come from different tables or passages of the source.

What was measured:
[1] = Drug loading using BAQ13 NPs; assay type: physicochemical; conditions: for PDI / Size/diameter: BAQ13 NPs loaded with the drug or dye; for Encapsulation efficiency / Drug-loading content: drug or dye loaded in BAQ13 NPs; for Drug-loading content: mass ratio
Procedure: (§1) Preparation and characterization of BAQ ONNs. NPs were prepared through the re-precipitation method. BAQ derivatives in methanol were added dropwise into MilliQ water while stirring for 5 min (volume ratio, 1:10), and then homogenous NPs were obtained after rotary evaporation (40° C., 20 min), followed by the characterization with Zetasizer Nano ZS (Malvern). The TEM samples were prepared by dropping 0.5 mM NPs on carbon square mesh and dried naturally, which were then observed under the Talos L120C TEM (FEI) at an accelerating voltage of 80 kV. To determine the drug content in nanoformulations, the prepared drug-loaded NPs were cut off by centrifugal filter (ultracel-10 kDa, Millipore), and the absorbance of filtrate (diluted with DMSO, 1:10, volume ratio) was measured for calculation of drug concentrations.
Next investigation was whether liposome-like BAQ ONNs can encapsulate additional agents. Upon nanoprecipitation of BAQ13 and various agents, homogeneous NPs with monomodal size distributions spontaneously formed (Table 2 and FIG. 9G).

MIA PaCa-2 = assay: MTS cell viability assay; assay type: cell-based, human; conditions: read-out: IC50 (μM) in the 24 h treatment MIA PaCa-2
Procedure: (§2) Cell line and cell culture. The human pancreatic cancer cell lines (MIA PaCa-2, BXPC3, and PANC-1) were originally purchased from ATCC and were kindly provided by Dr. Shiro Urayama's Lab. HT29, HCT116, H460, MCF7, NIH/3T3, and IMR-90 cell lines were purchased from ATCC. Bone marrow cells were collected from the leg bone marrows of FVB/N mice. All the cells were cultured at 37° C. in a humidified atmosphere of 5% CO2/95% air using the corresponding medium supplemented with 10% fetal bovine serum, […] according to ATCC protocol. All the cell lines have been tested for mycoplasma contamination routinely.
(§3) Cell viability, cell growth and colony formation. Cell viability was assessed by the MTS assay. Briefly, cells in 96-well plates (4,000 cell per well) were treated as indicated, followed by the incubation with MTS regents for 4 h. OD values (490 nm) were determined via a microplate reader. Results were shown as the average cell viability calculated from the formula of [(ODtreat−ODblank)/(ODcontrol−ODblank)×100%]. Drug combination data were analyzed by Combenefit 2.02. In cell growth assay, cells in 6-well plates (50,000 cell per well) were treated as indicated and were counted manually every 24 h. Colony formation assay was also performed on 6-well plates with a starting density of 1,000-2,000 cells per well. After incubated as indicated for 10-20 days, cells were washed with PBS and stained with the solution of crystal violet and methanol for 20 min.

HT29 = assay: MTS cell viability assay; assay type: cell-based; conditions: read-out: IC50 (μM) in the 24 h treatment HT29
Procedure: as §2, §3

Red blood cells = assay: pH-dependent haemolysis test; assay type: cell-based; conditions: whole pH range, same concentration (50 μM, 4 h)
[2] = Titration with hydrochloric acid (pH buffering capacity); assay type: physicochemical; conditions: 1 mM, 0.1 M HCl
[3] = Nanoparticle characterization of BAQ NPs (DLS, TEM); assay type: physicochemical; conditions: assembled NPs in water; for PDI / Size (nm): DLS
Procedure: as §1

BXPC-3 = assay: MTS cell viability assay; assay type: cell-based, human; conditions: 24 h; read-out: IC50 (μM) in the 24 h treatment BXPC-3
Procedure: as §2, §3

PANC-1 = assay: MTS cell viability assay; assay type: cell-based, human; conditions: 24 h; read-out: IC50 (μM) in the 24 h treatment PANC-1
Procedure: as §2, §3

H460 = assay: MTS cell viability assay; assay type: cell-based; conditions: 24 h; read-out: IC50 (μM) in the 24 h treatment H460
Procedure: as §2, §3

MCF-7 = assay: MTS cell viability assay; assay type: cell-based; conditions: 24 h; read-out: IC50 (μM) in the 24 h treatment MCF-7
Procedure: as §2, §3

HCT116 = assay: MTS cell viability assay; assay type: cell-based; conditions: Homo sapiens, HCT-116, 48 h; read-out: IC50 values from the 48 h MTS assay (μM) HCT116
Procedure: as §2, §3

HT29 tumours = assay: HT29 xenograft model; conditions: mice bearing HT29 tumours
[4] = test system: various cancer cell lines; assay: Preliminary MTS screening, 24 h; assay type: cell-based; conditions: 24 h MTS
Procedure: To verify the therapeutic effects of BAQ12-BAQ18, a preliminary screening was conducted using an MTS assay on various cancer cell lines. […] This decrease was due to gradual declines in the detergence and H^+ buffering capacity of compounds. Based on the results above, BAQ12 and BAQ13 were then selected as representatives for construction of BAQ ONNs in the following studies.
as §3

[5] = test system: three pancreatic cancer cell lines (MIA PaCa-2, BxPC-3, and PANC-1) and two colon cancer cell lines (HT29 and HCT116); assay: 48 h MTS assay on pancreatic and colon cancer cell lines; assay type: cell-based
Procedure: as §3
In vitro antitumour activity of BAQ derivatives. To systematically investigate the antitumour effects in vitro, three pancreatic cancer cell lines (MIA PaCa-2, BxPC-3, and PANC-1) and two colon cancer cell lines (HT29 and HCT116) were selected for a 48 h MTS assay. […] The improved anticancer activity of BAQ ONNs is attributable to their multiple functions in inducing LMP, lysosomal dysfunction and autophagy inhibition in cancer cells; these effects are considered to be important triggers of apoptosis. To examine the proapoptotic effects of BAQ ONNs, apoptosis signals in MIA PaCa-2 and HT29 cells was subsequently detected. […] Lys05, the control, increased apoptotic signals in a concentration-dependent manner, but its effect at a high concentration close to the IC50 was still milder than those of the low concentrations of BAQ ONNs.

MIA PaCa-2 cells = assay: RNA sequencing, differentially expressed genes; assay type: cell-based, human; conditions: 5 μM, 24 h, vs vehicle
Procedure: RNA-seq. Total RNA was extracted by the RNeasy Mini Kit (Qiagen, Germany) from the treated MIA PaCa-2 cells (5 μM, 24 h). Samples were submitted to the UC Davis Comprehensive Cancer Center's Genomics Shared Resource (GSR) for RNA-Seq analysis. Stranded RNA-Seq libraries were prepared from 100 ng total RNA using the NEBNext Ultra Directional RNA Library Prep Kit (New England BioLabs). Subsequently, libraries were combined for multiplex sequencing on an Illumina HiSeq 4000 System (2×150 bp, paired-end, >20×10^6 reads per sample). The data of normalized genes read counts were analyzed using fold change and t test. The Differentially expressed genes (DEGs) were collected for the signaling pathways enrichment by Funrich software 3.1.3. The gene sets were from MSigDB database (Broad Institute). GSEA was performed using GSEA version 3.0 in KEGG gene sets category online, with the following parameters: n=1,000 permutations, where p-adjust <0.05, and FDR <0.05 were considered significant.

Row | SMILES | PDI [1] | Size/diameter [1] [nm] | Encapsulation efficiency [1] [%] | Drug-loading content [1] [%] | Zeta Potential (mV) [3] [mV] | PDI [3] | Size (nm) [3] [nm] | IC50 (BXPC-3) [µM] | IC50 (MIA PaCa-2; 24 h) [µM] | IC50 (PANC-1) [µM] | IC50 (H460) [µM] | IC50 (HT29; 24 h) [µM] | IC50 (MCF-7) [µM] | further results
1 | CC1(C)CCC2=C(O1)c1ccccc1C(=O)C2=O [β-lapachone] | 0.047 | 128 | 95 | 33 |  |  |  |  |  |  |  |  |  | 
2 | COc1ccc(-c2nc(-c3cc(C(F)(F)F)cc(C(F)(F)F)c3)n(Cc3ccc(C(N)=O)cc3)c2-c2ccc(OC)cc2)cc1 [Apoptozole] | 0.099 | 85 | 93 | 50 |  |  |  |  |  |  |  |  |  | 
3 | Nc1cccc2c1CN(C1CCC(=O)NC1=O)C2=O (centres unmarked) [Lenalidomide] | 0.069 | 85 | 88 | 50 |  |  |  |  |  |  |  |  |  | 
4 | CCCCCCCCCCCCNC(=O)[C@@H](N)COC.Cl [MSDH, O-Methyl-Serine-Dodecylamide Hydrochloride] |  |  |  |  |  |  |  |  |  |  |  |  |  | IC50 (MIA PaCa-2; Homo sapiens, MIA PaCa-2, 24 h): 55.5 ± 7.1 µM; IC50 (HT29; Homo sapiens, HT-29, 24 h): 30.3 ± 4.8 µM; haemolytic response to pH (Red blood cells): only a weak haemolytic response to pH; pH plateau upon titration with HCl [2]: 6.2
5 | CC[C@]1(O)C[C@@H]2CN(CCc3c([nH]c4ccccc34)[C@@](C(=O)OC)(c3cc4c(cc3OC)N(C)[C@H]3[C@@](O)(C(=O)OC)[C@H](OC(C)=O)[C@]5(CC)C=CCN6CC[C@]43[C@@H]65)C2)C1 [Vinblastine] | 0.133 | 60 | 95 | 50 |  |  |  |  |  |  |  |  |  | 
6 | CCCCCCCCCCCCCCN(CCNc1ccnc2cc(Cl)ccc12)CCNc1ccnc2cc(Cl)ccc12 [BAQ14] |  |  |  |  | 39.1 ± 0.4 | 0.069 | 137.9 ± 4.6 | 7.5 ± 0.7 | 16 ± 1.8 | 10.4 ± 1.8 | 24 ± 0.3 | 9.6 ± 2 | 28.5 ± 3.5 | 
7 | Cc1sc2c(c1C)C(c1ccc(Cl)cc1)=N[C@@H](CC(=O)OC(C)(C)C)c1nnc(C)n1-2 [JQ1] | 0.048 | 110 | 92 | 50 |  |  |  |  |  |  |  |  |  | 
8 | CCCCCCCCCCCCCCCN(CCNc1ccnc2cc(Cl)ccc12)CCNc1ccnc2cc(Cl)ccc12 [BAQ15] |  |  |  |  | 38.0 ± 2.9 | 0.086 | 107.3 ± 2.6 | 17.2 ± 2 | 42 ± 11.7 | 34.5 ± 3.9 | 24.1 ± 0.4 | 16.1 ± 2.5 | > 60 | 
9 | CC(C)C[C@H](NC(=O)[C@H](Cc1ccccc1)NC(=O)c1cnccn1)B(O)O [Bortezomib] | 0.09 | 92 | 89 | 50 |  |  |  |  |  |  |  |  |  | 
10 | CCCCCCCCCCCCCCCCN(CCNc1ccnc2cc(Cl)ccc12)CCNc1ccnc2cc(Cl)ccc12 [BAQ16] |  |  |  |  | 40.4 ± 0.5 | 0.082 | 119.7 ± 2.1 | 27.6 ± 2.8 | 60.7 ± 13.9 | > 90 | > 90 | > 80 | > 90 | 
11 | CCc1c2c(nc3ccc(OC(=O)N4CCC(N5CCCCC5)CC4)cc13)-c1cc3c(c(=O)n1C2)COC(=O)[C@]3(O)CC [Irinotecan] |  |  |  |  |  |  |  |  |  |  |  |  |  | IC50 (HCT116): 17 ± 1 µM; Median Survival (HT29 tumours; survival analysis in text): 36 days; Median Survival (HT29 tumours; treatment terminated on the 24th day): 36 days
12 | CCCCCCCCCCCCCN(CCNc1ccnc2cc(Cl)ccc12)CCNc1ccnc2cc(Cl)ccc12 [BAQ13] |  |  |  |  | 39.7 ± 1.9 | 0.097 | 99.1 ± 2.1 | 3.1 ± 0.2 | 4.2 ± 1 | 4.3 ± 1 | 2.2 ± 0.4 | 3 ± 1.1 | 3.7 ± 0.3 | fold higher potency than HCQ [4]: ~20 fold; fold higher potency than Lys05 [4]: ~3 fold; fold higher potency than MSDH [4]: ~10 fold; effect alone versus combination treatment with Lys05 and MSDH [5]: more effective than combination treatment with Lys05 and MSDH; fold more potent than HCQ [5]: 30 fold; downregulated genes (MIA PaCa-2 cells): 181; upregulated genes (MIA PaCa-2 cells): 209; differentially expressed genes (DEGs) (MIA PaCa-2 cells; fold change≥2 and p value≤0.05): 390
13 | CCCCCCCCCCCCCCCCCCN(CCNc1ccnc2cc(Cl)ccc12)CCNc1ccnc2cc(Cl)ccc12 [BAQ18] |  |  |  |  | 39.5 ± 0.8 | 0.093 | 96.7 ± 1.6 | > 90 | > 90 | > 90 | > 90 | > 100 | > 90 | 
14 | CCN(CCO)CCCC(C)Nc1ccnc2cc(Cl)ccc12 (centres unmarked) [HCQ, hydroxychloroquine] |  |  |  |  |  |  |  |  |  |  |  |  |  | IC50 (MIA PaCa-2; Homo sapiens, MIA PaCa-2, 24 h): 79.6 ± 8.5 µM; IC50 (HT29; Homo sapiens, HT-29, 24 h): > 75 µM
15 | CCCCCCCCCCCCN(CCNc1ccnc2cc(Cl)ccc12)CCNc1ccnc2cc(Cl)ccc12 [BAQ12] |  |  |  |  | 36.4 ± 1.5 | 0.069 | 102.5 ± 3.1 | 2.9 ± 0.6 | 4.1 ± 0.8 | 4.5 ± 0.9 | 2.7 ± 0.5 | 3.5 ± 1.2 | 3.1 ± 0.1 | fold higher potency than HCQ [4]: ~20 fold; fold higher potency than Lys05 [4]: ~3 fold; fold higher potency than MSDH [4]: ~10 fold; effect alone versus combination treatment with Lys05 and MSDH [5]: more effective than combination treatment with Lys05 and MSDH; fold more potent than HCQ [5]: 30 fold
16 | COc1cc([C@@H]2c3cc4c(cc3[C@@H](O[C@@H]3O[C@@H]5CO[C@@H](C)O[C@H]5[C@H](O)[C@H]3O)[C@H]3COC(=O)[C@H]23)OCO4)cc(OC)c1O [Etoposide] | 0.104 | 69 | 86 | 50 |  |  |  |  |  |  |  |  |  | 
